Drawing on publication doi:10.1101/2024.06.10.598330v1 (biorxiv, 2024), this text covers Km for four compounds.

Structures are written as SMILES.

Test [1] concerns 'Concord' ortholog of 4g02123. As to the kind of experiment: MTase-Glo luminescence methyltransferase assay. As to conditions: 20 μM SAM, pH 8.0, 37 °C. It counts as biochemical, Vitis labrusca.
In a further test the test system is Vv4g02123. To be noted: 20 μM SAM, pH 8.0, 37 °C; substrate inhibition fit.
The target in another test is T1, Vv4g02169 (Vitis vinifera, UniProt D7SNV7).
T1 sequence (D7SNV7 1-364): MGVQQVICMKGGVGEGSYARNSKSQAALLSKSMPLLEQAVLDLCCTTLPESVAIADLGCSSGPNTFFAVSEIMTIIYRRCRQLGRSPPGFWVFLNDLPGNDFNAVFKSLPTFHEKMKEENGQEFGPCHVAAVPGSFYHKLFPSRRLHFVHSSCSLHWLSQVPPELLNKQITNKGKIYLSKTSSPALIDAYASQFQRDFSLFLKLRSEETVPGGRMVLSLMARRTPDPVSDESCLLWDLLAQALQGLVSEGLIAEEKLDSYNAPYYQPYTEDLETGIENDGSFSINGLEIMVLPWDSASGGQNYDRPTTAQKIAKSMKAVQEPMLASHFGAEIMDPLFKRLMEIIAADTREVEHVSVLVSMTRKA
Nature of the test: MTase-Glo luminescence methyltransferase assay. It counts as biochemical. As to conditions: 150 μM SAM, pH 8.0, 37 °C.

Take `CNc1ccccc1C(=O)O` [N-methyl AA]: the Km in test [1] is 120 µM; with Vv4g02123, 12 µM. Regarding `Nc1ccccc1C(=O)O` [anthranilate], the Michaelis constant (Km) in test [1] came out at 47 µM; on Vv4g02169, 160 µM. Turning to `O=C(O)c1ccccc1` [benzoic acid], the Km in test [1] was found to be 23 µM. As to `O=C(O)c1ccccc1O` [salicylic acid], the Km in test [1] (substrate inhibition fit) was determined as 3.8 µM.
